Results taken from patent US20070128596A1, “Reagents and methods for identifying and modulating expression of tumor senescence genes” (priority 2002, published 2007).

Key:
Type in all cases: cell-based, human
[1] = system: senescence-associated genes in HCT116 cells; assay: RT-PCR of senescence-associated gene expression in wild type, p21−/− and p53−/− HCT116 cells upon doxorubicin treatment
Description: (§1) In these experiments, poly(A)^+ RNA and protein extracts were prepared from PKH2^lo and PKH2^hi cell populations, separated in different experiments 6, 9 or 10 days after release from doxorubicin. Fluorescent cDNA probes were synthesized and used for hybridization with the Human UniGEM V 2.0 cDNA microarray and signal analysis (assays were conducted by IncyteGenomics, St. Louis, Mo., as described at that company's web site, www.incyte.com). Changes in gene expression were verified by semi-quantitative reverse transcription-PCR (RT-PCR), essentially as described (Noonan et al., 1990, Proc. Natl. Acad. Sci. USA 87: 7160-7164), using β-actin as an internal normalization standard and the oligonucleotide primers shown in Table 3. RT-PCR analysis was carried out using two pairs of proliferating- and senescent-cell RNA preparations isolated in independent experiments, with the same results; for a subset of the genes, the assays were reproduced with the same pair of RNA samples. […] Bands were detected using horseradish peroxidase-labeled secondary antibodies and ECL chemiluminescence detection kit (Amersham Pharmacia Biotech, Piscataway, N.J.).
To elucidate the roles of p53 and p21 in the observed changes in gene expression, expression of senescence-associated genes upon doxorubicin treatment of wild type, p21−/− and p53−/− HCT116 cells was analyzed. RNA samples were isolated before the addition of the drug, immediately after one-day treatment with doxorubicin, and on three consecutive days after the removal of the drug.

[2] = system: HCT116 colon carcinoma cells; assay: FACS analysis of cell division by PKH2 fluorescence after doxorubicin treatment; conditions: 200 nM doxorubicin 24 hr
Description: (§2) HCT116 colon carcinoma cells (Myohanen et al., 1998, Cancer Res. 58: 591-593; Accession No. CCL-247, American Type Culture Collection, Manassas, Va.), including wild-type, p21−/− (clone 80S4) and p53−/− (clone 379.2) cell lines (a gift of Dr. B. Vogelstein, Johns Hopkins University) were grown in Dulbecco Modified Eagle Medium with 10% FC2 serum. Cells were plated at 5×10^6 cells per 15-cm plate and treated for 24-hr with 200 nM doxorubicin. Thereafter, cells were allowed to recover in drug-free media up to 10 days. For fluorescence-activated cell sorter (FACS) analysis of cell division, cells were labeled with PKH2 (a lipophilic fluorophore; Sigma Chemical Co., St. Louis, Mo.), which stably incorporates into the plasma membrane and distributes evenly between daughter cells, resulting in gradual decrease in PKH2 fluorescence during consequent cell divisions (Horan et al., 1989, Nature 340: 167-168). FACS analysis and cell sorting carried out as described in Chang et al. (1999, Cancer Res. 59: 3761-3767 and 1999, Oncogene 18: 4808-4818). Sorted fractions of senescent (pKH2^hi) and proliferating (PKH2^lo) cells (90-95% purity) were analyzed for DNA content using propidium iodide (PI) staining and FACS analysis as described by Jordan et al. (1996, Cancer Res. 56: 816-825). […]
Changes in PKH2 fluorescence were monitored by FACS on different days after doxorubicin treatment. […]

[3] = system: HCT116 colon carcinoma cells; assay: Clonogenicity of sorted populations (colony formation); conditions: PKH2hi fraction separated after doxorubicin treatment
Description: as §2

[4] = system: HCT116 colon carcinoma cells; assay: DNA content analysis by propidium iodide staining and FACS; conditions: PKH2hi fraction after 200 nM doxorubicin 24 hr
Description: as §2

[5] = system: p21; assay: Immunoblotting of p53 and p21 in wild type, p21−/− and p53−/− HCT116 cell lines treated with doxorubicin; conditions: wild type vs p53−/− and p21−/− HCT116
Description: as §1

[6] = system: HCT116 colon carcinoma cells; assay: Senescence-associated β-galactosidase (SA-β-gal) staining; conditions: PKH2hi fraction after 200 nM doxorubicin 24 hr
Description: as §2

[7] = system: Maspin; assay: Immunoblotting of protein products of senescence-associated genes in doxorubicin-treated HCT116 cells
Description: as §1

COc1cccc2c1C(=O)c1c(O)c3c(c(O)c1C2=O)C[C@@](O)(C(=O)CO)C[C@@H]3O[C@H]1C[C@H](N)[C@H](O)[C@H](C)O1 [doxorubicin]
Maspin induction in p53−/− cells ([1]; p53−/− HCT116): still readily detectable in p53−/− cells
BTG2 induction in p53−/− cells ([1]; p53−/− vs wild type HCT116): inducible by doxorubicin in p53−/− cells, albeit to a lesser degree than in the wild type cells
EPLIN induction in the unsorted cells ([1]; unsorted HCT116 cells, compared with the other growth-inhibitory genes): weakest induction
Amphiregulin induction, dependence on p53 ([1]; wild type vs p53−/− HCT116): only moderate dependence on p53
BTG1 induction, dependence on p53 ([1]; wild type vs p53−/− HCT116): independent of p53
IGFBP-6 induction, dependence on p53 ([1]; wild type vs p53−/− HCT116): no dependence on p53
MIC-1 induction, dependence on p53 ([1]; wild type vs p53−/− HCT116): only weak dependence on p53
day on which a proliferating cell population (PKH2lo) emerged ([2]; days after treatment): 4 days
growth arrest of PI-negative cells (PKH2 fluorescence) ([2]; first 2-3 days after treatment): remained growth-arrested
colony formation by PKH2hi cells [3]: have lost their proliferative capacity
cell cycle phase of PKH2hi cells (DNA content) [4]: remained in G2
p21 protein induction, dependence on p53 [5]: strongly dependent on p53
SA-β-gal staining of PKH2hi cells [6]: stained positively for SA-β-gal
Maspin induction at the protein level [7]: very strong induction
